Measurements taken from patent publication US10526314B2, “Hydroxyalkyl-substituted heteroaryltriazole derivatives and uses thereof” (BAYER AKTIENGESELLSCHAFT, priority 2016, dated 2020).

Tests used:
human V2 receptor = target: T1, human V2 receptor (Homo sapiens, UniProt P30518); test: Cellular in vitro assay for determining vasopressin receptor activity (V2, CRE-luciferase); type: cell-based; details: CHO cell line transfected with human V2 receptor; [Arg8]-vasopressin at EC50 concentration; read-out: IC50 hV2
T1 construct: expressed in transfected cells; host or cells: CHO K1 (ATCC) expressing firefly luciferase under a CRE-responsive promoter
Protocol: (§1) B-1. Cellular In Vitro Assay for Determining Vasopressin Receptor Activity
(§2) The identification of agonists and antagonists of the V1a and V2 vasopressin receptors from humans, rats and dogs as well as the quantification of the activity of the compounds of the invention is carried out using recombinant cell lines. These cell lines originally derive from a hamster's ovary epithelial cell (Chinese Hamster Ovary, CHO K1, ATCC: American Type Culture Collection, Manassas, Va. 20108, USA). The test cell lines constitutively express the human, rat or dog V1a or V2 receptors. In case of the Gαq-coupled V1a receptors, cells are also stably transfected with a modified form of the calcium-sensitive photoproteins aequorin (human and rat V1a) or obelin (dog V1a), which, after reconstitution with the cofactor coelenterazine, emit light when there are increases in free calcium concentrations [Rizzuto R, Simpson A W, Brini M, Pozzan T, Nature 358, 325-327 (1992); Illarionov B A, Bondar V S, Illarionova V A, Vysotski E S, Gene 153 (2), 273-274 (1995)]. The resulting vasopressin receptor cells react to stimulation of the recombinantly expressed V1a receptors by intracellular release of calcium ions, which can be quantified by the resulting photoprotein luminescence. The Gs-coupled V2 receptors are stably transfected into cell lines expressing the gene for firefly luciferase under control of a CRE-responsible promoter. Activation of V2 receptors induces the activation of the CRE-responsive promoter via cAMP increase, thereby inducing the expression of firefly luciferase. The light emitted by photoproteins of V1a cell lines as well as the light emitted by firefly luciferase of V2 cell lines corresponds to the activation or inhibition of the respective vasopressin receptor. The bioluminescence of the cell lines is detected using a suitable luminometer [Milligan G, Marshall F, Rees S, Trends in Pharmacological Sciences 17, 235-237 (1996)].
Vasopressin V2 Receptor Cell Lines:
On the day before the assay, the cells are plated out in culture medium (DMEM/F12, 2% FCS, 2 mM glutamine, 10 mM HEPES) in 384-well microtiter plates and kept in a cell incubator (96% humidity, 5% v/v CO2, 37° C.). On the day of the assay, test compounds in various concentrations and the agonist [Arg^8]-vasopressin at EC50 concentration are added together to the wells, and plates are incubated for 3 hours in a cell incubator. Upon addition of the cell lysis reagent Triton™ and the substrate luciferin, luminescence of firefly luciferase is measured in a luminometer.
(§3) Table 1A below lists individual IC50 values for the compounds of the invention (including racemic mixtures as well as separated enantiomers) that were obtained from cell lines transfected with the human V1a or V2 receptor: […]

human V1a receptor = target: T2, human V1a receptor (Homo sapiens, UniProt P37288); test: Cellular in vitro assay for determining vasopressin receptor activity (V1a, aequorin luminescence); type: cell-based; details: for IC50: CHO cell line transfected with human V1a receptor, [Arg8]-vasopressin at EC50 concentration, read-out: IC50 hV1a; for ratio IC50 hV2/hV1a: selectivity ratio IC50 hV2 / IC50 hV1a
T2 construct: expressed in transfected cells; host or cells: CHO K1 (ATCC), also stably transfected with a modified aequorin
Protocol: as §1, §2
Vasopressin V1a Receptor Cell Lines:
On the day before the assay, the cells are plated out in culture medium (DMEM/F12, 2% FCS, 2 mM glutamine, 10 mM HEPES, 5 μg/ml coelenterazine) in 384-well microtiter plates and kept in a cell incubator (96% humidity, 5% v/v CO2, 37° C.). On the day of the assay, test compounds in various concentrations are placed for 10 minutes in the wells of the microtiter plate before the agonist [Arg^8]-vasopressin at EC50 concentration is added. The resulting light signal is measured immediately in a luminometer.
as §3

T2 sequence (P37288 whole entry): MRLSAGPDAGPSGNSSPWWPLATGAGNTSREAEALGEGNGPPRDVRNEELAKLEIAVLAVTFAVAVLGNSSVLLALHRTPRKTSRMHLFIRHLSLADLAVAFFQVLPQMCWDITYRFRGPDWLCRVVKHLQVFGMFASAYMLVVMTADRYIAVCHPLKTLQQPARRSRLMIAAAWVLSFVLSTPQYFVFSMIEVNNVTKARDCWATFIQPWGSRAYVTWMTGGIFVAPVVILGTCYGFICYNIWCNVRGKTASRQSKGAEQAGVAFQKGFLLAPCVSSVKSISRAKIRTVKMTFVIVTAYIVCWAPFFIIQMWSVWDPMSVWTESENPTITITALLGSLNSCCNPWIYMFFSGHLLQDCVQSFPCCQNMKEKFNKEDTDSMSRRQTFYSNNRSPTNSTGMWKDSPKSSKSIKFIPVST
T1 sequence (P30518 whole entry): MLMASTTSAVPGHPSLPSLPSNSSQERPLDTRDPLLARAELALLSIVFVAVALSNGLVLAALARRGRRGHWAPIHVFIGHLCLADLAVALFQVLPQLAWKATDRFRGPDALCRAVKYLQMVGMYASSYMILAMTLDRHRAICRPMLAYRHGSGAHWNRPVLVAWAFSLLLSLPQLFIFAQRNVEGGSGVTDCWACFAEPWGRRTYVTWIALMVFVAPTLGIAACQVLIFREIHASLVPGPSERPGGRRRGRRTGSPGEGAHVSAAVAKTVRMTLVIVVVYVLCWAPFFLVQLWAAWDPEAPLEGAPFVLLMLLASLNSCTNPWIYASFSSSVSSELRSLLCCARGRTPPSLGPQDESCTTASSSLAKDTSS

Compound	IC50 (human V2 receptor)	IC50 (human V1a receptor)	ratio IC50 hV2/hV1a (human V1a receptor)
C[C@H](O)c1nc(Cn2nc(-c3ccc(Cl)cc3)n(C[C@H](O)C(F)(F)F)c2=O)nn1-c1cccnn1 [Example 20, 5-(4-Chlorophenyl)-2-({5-[(1S)-1-hydroxyethyl]-1-(pyridazin-3-yl)-1H-1,2,4-triazol-3-yl}methyl)-4-[(25)-3,3,3-trifluoro-2-hydroxypropyl]-2,4-dihydro-3H-1,2,4-triazol-3-one]	235 nM	47.6 nM	4.9
CC(O)c1nc(Cn2nc(-c3ccc(Cl)cc3)n(C[C@H](O)C(F)(F)F)c2=O)nn1-c1cccnc1 (single isomer, unassigned) [Example 25]	240 nM	90.8 nM	2.6
C[C@@H](O)c1nc(Cn2nc(-c3ccc(Cl)cc3)n(C[C@H](O)C(F)(F)F)c2=O)nn1-c1ncccc1F [Example 13, 5-(4-Chlorophenyl)-2-({1-(3-fluoropyridin-2-yl)-5-[(1R)-1-hydroxyethyl]-1H-1,2,4-triazol-3-yl}methyl)-4-[(2S)-3,3,3-trifluoro-2-hydroxypropyl]-2,4-dihydro-3H-1,2,4-triazol-3-one]	38.7 nM	6.05 nM	6.4
C[C@@H](O)c1nc(Cn2nc(-c3ccc(Cl)cc3)n(C[C@H](O)C(F)(F)F)c2=O)nn1-c1ncccc1OC(F)(F)F [Example 16, 5-(4-Chlorophenyl)-2-({5[(1R)-1hydroxyethyl]-1-[3-(trifluoromethoxy)pyridin-2-yl]-1H-1,2,4-triazol-3yl}methyl)-4-[(2S)-3,3,3-trifluoro-2-hydroxypropyl]-2,4-dihydro-3H-1,2,4-triazol-3-one]	387 nM	13 nM	29.7
C[C@H](O)c1nc(Cn2nc(-c3ccc(Cl)cc3)n(C[C@H](O)C(F)(F)F)c2=O)nn1-c1ncccc1Cl [Example 3, 5-(4-Chlorophenyl)-2-({1-(3-chloropyridin-2-yl)-5-[(1S)-1-hydroxyethyl]-1H-1,2,4-triazol-3-yl}methyl)-4-[(2S)-3,3,3-trifluoro-2-hydroxypropyl]-2,4-dihydro-3H-1,2,4-triazol-3-one]	8.07 nM	0.57 nM	14.2
C[C@@H](O)c1nc(Cn2nc(-c3ccc(Cl)cc3)n(C[C@H](O)C(F)(F)F)c2=O)nn1-c1ccccn1 [Example 23, 5-(4-Chlorophenyl)-2-({5-[(1R)-1-hydroxyethyl]-1-(pyridin-2-yl)-1H-1,2,4-triazol-3-yl}methyl)-4-[(2S)-3,3,3-trifluoro-2-hydroxypropyl]-2,4-dihydro-3H-1,2,4-triazol-3-one]	103 nM	86.5 nM	1.2
C[C@H](O)c1nc(Cn2nc(-c3ccc(Cl)cc3)n(C[C@H](O)C(F)(F)F)c2=O)nn1-c1c(Cl)cncc1Cl [Example 9, 5-(4-Chlorophenyl)-2-({1-(3,5-dichloropyridin-4-yl)-5-[(1S)-1-hydroxyethyl]-1H-1,2,4-triazol-3-yl}methyl)-4-[(2S)-3,3,3-trifluoro-2-hydroxypropyl]-2,4-dihydro-3H-1,2,4-triazol-3-one]	24.5 nM	4.13 nM	5.9
CC(O)c1nc(Cn2nc(-c3ccc(Cl)cc3)n(C[C@H](O)C(F)(F)F)c2=O)nn1-c1cncc(Cl)c1 (single isomer, unassigned) [Example 28]	51.7 nM	20.6 nM	2.5
C[C@@H](O)c1nc(Cn2nc(-c3ccc(Cl)cc3)n(C[C@H](O)C(F)(F)F)c2=O)nn1-c1cnccc1Cl [Example 1, 5-(4-Chlorophenyl)-2-({1-(4-chloropyridin-3-yl)-5-[(1R)-1-hydroxyethyl]-1H-1,2,4-triazol-3-yl}methyl)-4-[(2S)-3,3,3-trifluoro-2-hydroxypropyl]-2,4-dihydro-3H-1,2,4-triazol-3-one]	16 nM	0.49 nM	32.6
C[C@H](O)c1nc(Cn2nc(-c3ccc(Cl)cc3)n(C[C@H](O)C(F)(F)F)c2=O)nn1-c1ncccc1C(F)(F)F [Example 30, 5-(4-chlorophenyl)-2-({5-[(1S)-1-hydroxyethyl]-1-[3-(trifluoromethyl)pyridin-2-yl]-1H-1,2,4-triazol-3-yl}methyl)-4-[(2S)-3,3,3-trifluoro-2-hydroxypropyl]-2,4-dihydro-3H-1,2,4-triazol-3-one]	48.5 nM	3.3 nM	14.9
C[C@@H](O)c1nc(Cn2nc(-c3ccc(Cl)cc3)n(C[C@H](O)C(F)(F)F)c2=O)nn1-c1ncccc1C(F)(F)F [Example 31, 5-(4-chlorophenyl)-2-({5-[(1R)-1-hydroxyethyl]-1-[3-(trifluoromethyl)pyridin-2-yl]-1H-1,2,4-triazol-3yl}methyl)-4-[(2S)-3,3,3-trifluoro-2-hydroxypropyl]-2,4-dihydro-3H-1,2,4-triazol-3-one]	170 nM	4.9 nM	35.1
CC(O)c1nc(Cn2nc(-c3ccc(Cl)cc3)n(C[C@H](O)C(F)(F)F)c2=O)nn1-c1cncc(Cl)c1 (single isomer, unassigned) [Example 29]	15.2 nM	7.71 nM	2.0
C[C@H](O)c1nc(Cn2nc(-c3ccc(Cl)cc3)n(C[C@H](O)C(F)(F)F)c2=O)nn1-c1ncccc1F [Example 11, 5-(4-Chlorophenyl)-2-({1-(3-fluoropyridin-2-yl)-5-[(1S)-1-hydroxyethyl]-1H-1,2,4-triazol-3-yl}methyl)-4-[(2S)-3,3,3-trifluoro-2-hydroxypropyl]-2,4-dihydro-3H-1,2,4-triazol-3-one]	22.7 nM	5.6 nM	4.1
C[C@H](O)c1nc(Cn2nc(-c3ccc(Cl)cc3)n(C[C@H](O)C(F)(F)F)c2=O)nn1-c1ccncc1Cl [Example 7, 5-(4-Chlorophenyl)-2-({1-(3-chloropyridin-4-yl)-5-[(1S)-1-hydroxyethyl]-1H-1,2,4-triazol-3-yl}methyl)-4-[(2S)-3,3,3-trifluoro-2-hydroxypropyl]-2,4-dihydro-3H-1,2,4-triazol-3-one]	16 nM	3 nM	5.3
